We go through one molecule from patent US10851092B2, “Pyridine compound” (Daiichi Sankyo Company, Limited, priority 2016, dated 2020).

For data set [1], the target named is KDR kinase (Homo sapiens (Human), UniProt P35968). The experiment in a line: Evaluation of KDR kinase inhibiting activity (cell system), HUVEC, AlphaLISA. The class given is cell-based. The procedure:
HUVEC cells were seeded on a plate at a cell density of 1500 cells per well, and then cultured overnight. The test compound (10 uM, 2.5 uM, 625 nM, 156 nM, […], 10 nM, 2.5 nM, or 0.6 nM) was added to each well, followed by culturing the obtained mixture for 2 hours. Thereafter, VEGF165 (Peprotech, #100-20) was added to the culture at a final concentration of 50 ng/ml, and the obtained mixture was then reacted at 37° C. for 5 minutes. Thereafter, the resulting cells were lysed with 50 ul of Lysis buffer included in AlphaLISA SureFire Ultra (Perkin Elmer, # ALSU-PVGFR-A500), and Acceptor beads and Donor beads were then added to 10 ul of the cell lysate according to the instruction manual included with the aforementioned kit. The mixture thus obtained was reacted at room temperature overnight, and thereafter, a KDR kinase inhibiting activity rate was measured using Envision (Perkin Elmer).
The value for a well to which only the Lysis buffer had been added was subtracted as a background from all of the values. Thereafter, the value for a well to which […] had been added and the test compound had not been added was defined as a KDR kinase activity of 100%, and the obtained value was corrected.
Background: Alpha assays give light when donor and acceptor beads are brought close together.

The subject of data set [2] is thyroid gland cancer cell line TT having RET activating mutation (C634W). In words: Cell growth inhibitory activity, thyroid gland cancer cell line TT. Type of data set: cell-based. Particulars: Homo sapiens, 216 h; TT cells, 9 days, CellTiter-Glo. The procedure:
The cell growth inhibitory activity of the test compound on the thyroid gland cancer cell line TT having RET activating mutation (C634W) (Biochemical and Biophysical Research Communications. 1995 Feb. 27 (207), 1022-1028) was measured.
TT cells were seeded on a 96-well plate at a cell density of 5,000 cells per well, and were then cultured at 37° C. in the presence of 5% CO2 overnight in an F-12K nutrient mixture medium containing 10% FBS. Thereafter, the compound was diluted, and then added to the 96-well plate. As a negative control, dimethyl sulfoxide (hereinafter referred to as DMSO) was added. The obtained mixture was cultured at 37° C. in the presence of 5% CO2 for 9 days, and thereafter, a cell count measuring reagent CellTiter-Glo® Luminescent Cell Viability Assay was added to the culture, followed by stirring the mixture. Thereafter, using a luminescence measurement device Envision (Perkin Elmer), the luminescence intensity was measured. The measurement value of a well to which only the medium had been added was define as a survival rate of 0%, and the measurement value of a well to which DMSO had been added was defined as a survival rate of 100%. The survival rate of the TT cells in the presence of each concentration of the test compound was calculated.

For data set [3], the system named is non-small cell lung cancer cell line LC-2/ad xenograft. In words: Antitumor activity in xenograft model established with LC-2/ad. Type of data set: in vivo, NOG mice. As to conditions: oral. From the text:
(§1) Cells of a non-small cell lung cancer cell line LC-2/ad (RIKEN, J Thorac Oncol. 2012 December, 7(12), 1872-6) suspended in DPBS (Gibco, #14190) were mixed with an equal amount of Corning Matrigel Basement Membrane Matrix (Corning, #354234), and the obtained mixture was then subcutaneously transplanted into NOG mice to form a tumor. (The NOG mice were acclimatized after they had been received from In Vivo Science Inc., and thereafter, the cells were transplanted into the mice when the mice were 9 week olds. As feedstuff, FR-2 (manufactured by Funabashi Farm Co., Ltd.) was used.) After the tumor had reached a size of 100 to 200 mm^3, the mice were randomized based on tumor diameter, and oral administration of the compound of Example 4 (hereinafter referred to as Compound A) was then initiated. As a solvent for dissolving Compound A, 1% hydroxypropyl methyl cellulose was used. […] Moreover, the tumor was collected (no administration was carried out on the Vehicle group) two hours and six hours after the final administration of Compound A, and the RET phosphorylation of the tyrosine at position 905 used as an indicator of RET kinase activity (pRET(Y905), Nature Medicine, 18, 375-377 (2012)) was then detected by the Western blotting method.

The target in data set [4] is RET phosphorylation of the tyrosine at position 905 (pRET(Y905)) (Homo sapiens (Human), UniProt P07949+Q16204). In words: RET phosphorylation (Y905) in LC-2/ad xenograft tumors, Western blotting. Type of data set: in vivo, NOG mice. Particulars: tumor collected two and six hours after final administration (FIG. 2).
RET phosphorylation of the tyrosine at position 905 (pRET(Y905)), sequence (P07949 other isoform, or with tags, fused parts or gaps): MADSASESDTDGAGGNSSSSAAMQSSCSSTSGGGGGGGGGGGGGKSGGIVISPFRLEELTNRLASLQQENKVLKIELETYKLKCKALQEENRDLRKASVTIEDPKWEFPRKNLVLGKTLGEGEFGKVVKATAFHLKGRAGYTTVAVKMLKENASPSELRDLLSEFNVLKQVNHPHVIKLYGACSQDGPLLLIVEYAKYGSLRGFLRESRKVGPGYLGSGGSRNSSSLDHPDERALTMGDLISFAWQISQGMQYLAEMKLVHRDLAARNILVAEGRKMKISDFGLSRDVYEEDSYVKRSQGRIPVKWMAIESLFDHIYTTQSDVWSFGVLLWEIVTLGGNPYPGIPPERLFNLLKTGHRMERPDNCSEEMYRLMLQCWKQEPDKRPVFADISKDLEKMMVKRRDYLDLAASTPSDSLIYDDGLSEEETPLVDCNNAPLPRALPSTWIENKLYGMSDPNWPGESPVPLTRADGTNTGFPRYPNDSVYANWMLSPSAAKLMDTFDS
Source text: as §1
Background: In western blotting, separated proteins are transferred to a membrane and probed.

For data set [5], the system named is non-small cell lung cancer cell line LC-2/ad having a CCDC6-RET fusion gene. In words: Cell growth inhibitory activity, non-small cell lung cancer cell line LC-2/ad. Type of data set: cell-based. As to conditions: Homo sapiens, 216 h; LC-2/ad cells, 9 days, CellTiter-Glo. The procedure: The cell growth inhibitory activity of the test compound on the non-small cell lung cancer cell line LC-2/ad having a CCDC6-RET fusion gene (RIKEN, J Thorac Oncol. 2012 December, 7(12), 1872-6) was measured.
LC-2/ad cells were seeded on a 96-well plate at a cell density of 5,000 cells per well, and then cultured at 37° C. in the presence of 5% CO2 overnight in a medium prepared by mixing RPMI-1640 containing 15% FBS and 25 mM HEPES with Ham's F12 Mixture at a mixing ratio of 1:1. Thereafter, the test compound was diluted, and then added to the 96-well plate. As a negative control, dimethyl sulfoxide (hereinafter referred to as DMSO) was added. The obtained mixture was cultured at 37° C. in the presence of 5% CO2 for 9 days, and thereafter, a cell count measuring reagent CellTiter-Glo® Luminescent Cell Viability Assay (Promega, # G7571) was added to the culture, followed by stirring the mixture. Thereafter, using a luminescence measurement device Envision, the luminescence intensity was measured. The measurement value of a well to which only the medium had been added was define as a survival rate of 0%, and the measurement value of a well to which DMSO had been added was defined as a survival rate of 100%. The survival rate of the LC-2/ad cells in the presence of each concentration of the test compound was calculated.
A general note: Cellular ATP, detected with luciferase, serves as a proxy for viable cell number.

Like-named read-outs stand apart in the source and are kept apart here.

KDR kinase, sequence (P35968 20-1356): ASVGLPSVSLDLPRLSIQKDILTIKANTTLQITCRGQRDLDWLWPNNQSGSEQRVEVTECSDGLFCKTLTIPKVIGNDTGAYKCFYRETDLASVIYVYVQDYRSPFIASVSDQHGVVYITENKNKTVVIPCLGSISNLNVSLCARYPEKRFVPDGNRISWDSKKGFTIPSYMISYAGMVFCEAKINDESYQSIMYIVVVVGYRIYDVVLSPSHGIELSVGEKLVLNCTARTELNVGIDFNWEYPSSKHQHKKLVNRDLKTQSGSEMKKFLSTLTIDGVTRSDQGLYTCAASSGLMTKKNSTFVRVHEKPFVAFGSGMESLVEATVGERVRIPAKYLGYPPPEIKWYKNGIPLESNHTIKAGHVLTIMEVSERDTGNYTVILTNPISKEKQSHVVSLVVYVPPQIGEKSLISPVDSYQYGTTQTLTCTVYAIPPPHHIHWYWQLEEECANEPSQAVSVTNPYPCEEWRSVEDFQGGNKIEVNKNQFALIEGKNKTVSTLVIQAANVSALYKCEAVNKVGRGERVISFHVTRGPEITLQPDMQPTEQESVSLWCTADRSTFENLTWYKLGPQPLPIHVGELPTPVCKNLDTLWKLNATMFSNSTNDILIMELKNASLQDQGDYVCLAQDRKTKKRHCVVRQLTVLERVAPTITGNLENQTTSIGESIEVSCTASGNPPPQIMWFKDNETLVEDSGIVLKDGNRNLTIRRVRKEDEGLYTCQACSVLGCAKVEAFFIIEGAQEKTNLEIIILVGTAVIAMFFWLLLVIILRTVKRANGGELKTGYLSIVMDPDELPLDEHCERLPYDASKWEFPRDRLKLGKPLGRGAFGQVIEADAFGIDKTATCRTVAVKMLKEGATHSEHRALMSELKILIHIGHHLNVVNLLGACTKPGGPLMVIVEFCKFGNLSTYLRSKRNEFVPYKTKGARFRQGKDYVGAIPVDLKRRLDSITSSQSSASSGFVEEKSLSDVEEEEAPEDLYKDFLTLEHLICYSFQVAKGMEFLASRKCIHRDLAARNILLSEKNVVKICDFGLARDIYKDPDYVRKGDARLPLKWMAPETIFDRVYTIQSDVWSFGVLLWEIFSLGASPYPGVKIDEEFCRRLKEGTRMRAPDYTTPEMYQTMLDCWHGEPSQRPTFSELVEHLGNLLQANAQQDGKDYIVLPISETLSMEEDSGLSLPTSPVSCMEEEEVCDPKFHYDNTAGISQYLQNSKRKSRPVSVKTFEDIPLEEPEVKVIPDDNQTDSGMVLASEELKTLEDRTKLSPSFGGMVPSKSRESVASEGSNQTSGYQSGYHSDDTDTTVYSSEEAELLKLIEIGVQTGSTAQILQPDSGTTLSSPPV

The term IC50 denotes the concentration that gives 50% inhibition. `COc1cc2cc(-c3ccc(CC(=O)Nc4cc(C(C)(C)C(F)(F)F)no4)cn3)cnc2cc1OC` [Example 4, 2-[6-(6,7-Dimethoxyquinolin-3-yl)pyridin-3-yl]-N-[3-(1,1,1-trifluoro-2-methylpropan-2-yl)-1,2-oxazol-5-yl]acetamide Methanesulfonate]: the IC50 in data set [1] (KDR, HUVEC cells, VEGF165 50 ng/ml, compound 2 hours, read-out: IC50) stood at 298 nM; in data set [1] (cell system, Form: Mesylate, read-out: IC50 (nM) KDR), 287 nM; in data set [2], 6 nM; in data set [5], 49 nM. In addition, the tumor regression entry in data set [3] (3 mg/kg or 1 mg/kg three times a day for 9 days (FIG. 1)) was “dose-dependent tumor regression”. The “reduction in body weight” value in data set [3] (3 mg/kg or 1 mg/kg three times a day for 9 days, compared to Vehicle group) is reported as “no significant reduction in body weight”. Further, the “suppression of the phosphorylation of Y905 (pRET(Y905))” value in data set [4] is “dose-dependent suppression of the phosphorylation of Y905”.
